Assays:
Test in all cases: HTRF Assay
[1] = target: Mitogen-activated protein kinase 10 (Homo sapiens, UniProt P53779)
Description: (§1) The aJNK solution (20 μl/well) was added to the plate and the plate was shaken. The enzyme was incubated with the compound at RT for 10 min.(5) ATP/substrate solution preparation: ATP and substrate stocks were thawed on ice. […] The ATP/substrate (20 μl/well) was added to the plate and the plate was shaken. The plate was incubated at RT for 15 min. Note: In an exemplary assay, the final ATP concentration was about 1 mM.(6) EDTA preparation: 30 mM EDTA was prepared using 0.5M EDTA stock and assay buffer #1. The EDTA (10 μl/well) was added to the plate to quench the enzyme reaction and the plate was shaken well.(7) Detection reagent preparation: Eu-63 and SA-XL stocks were thawed on ice. […] The Eu-63/SA-XL solution (20 μl/well) was added to the plate and the plate was shaken. The plate was incubated at RT for 1 hr before reading the plate on LJL using ratiometric method named HTRF.

[2] = target: Mitogen-activated protein kinase 8 (Homo sapiens, UniProt P45983)
Chain of Mitogen-activated protein kinase 8 (P45983 whole entry): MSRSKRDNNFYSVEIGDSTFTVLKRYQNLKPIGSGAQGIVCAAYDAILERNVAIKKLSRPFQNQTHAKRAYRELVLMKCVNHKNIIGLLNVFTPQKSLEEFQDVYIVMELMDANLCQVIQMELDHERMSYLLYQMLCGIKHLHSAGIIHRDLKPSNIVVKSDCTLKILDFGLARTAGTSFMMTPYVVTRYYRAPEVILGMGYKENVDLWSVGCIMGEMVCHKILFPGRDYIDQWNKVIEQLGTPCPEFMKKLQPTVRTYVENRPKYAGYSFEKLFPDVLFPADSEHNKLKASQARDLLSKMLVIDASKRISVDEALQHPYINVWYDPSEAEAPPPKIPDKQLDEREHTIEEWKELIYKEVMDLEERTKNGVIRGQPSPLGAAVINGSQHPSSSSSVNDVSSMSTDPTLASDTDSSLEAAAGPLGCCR
Description: as §1

[3] = target: Mitogen-activated protein kinase 9 (Homo sapiens, UniProt P45984)
Chain of Mitogen-activated protein kinase 9 (P45984 whole entry): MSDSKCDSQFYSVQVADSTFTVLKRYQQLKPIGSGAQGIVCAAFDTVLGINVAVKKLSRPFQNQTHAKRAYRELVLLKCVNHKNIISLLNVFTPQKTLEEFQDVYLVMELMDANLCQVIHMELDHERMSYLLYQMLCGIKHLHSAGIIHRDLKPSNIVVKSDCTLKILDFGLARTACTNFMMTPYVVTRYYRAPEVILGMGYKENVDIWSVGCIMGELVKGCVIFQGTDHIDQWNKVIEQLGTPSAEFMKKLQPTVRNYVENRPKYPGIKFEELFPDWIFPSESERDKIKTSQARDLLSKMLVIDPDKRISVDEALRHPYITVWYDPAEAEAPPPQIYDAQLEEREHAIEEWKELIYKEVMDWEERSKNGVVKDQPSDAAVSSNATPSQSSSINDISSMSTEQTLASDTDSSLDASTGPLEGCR
Description: as §1

Measured: IC50

Chain of Mitogen-activated protein kinase 10 (P53779 whole entry): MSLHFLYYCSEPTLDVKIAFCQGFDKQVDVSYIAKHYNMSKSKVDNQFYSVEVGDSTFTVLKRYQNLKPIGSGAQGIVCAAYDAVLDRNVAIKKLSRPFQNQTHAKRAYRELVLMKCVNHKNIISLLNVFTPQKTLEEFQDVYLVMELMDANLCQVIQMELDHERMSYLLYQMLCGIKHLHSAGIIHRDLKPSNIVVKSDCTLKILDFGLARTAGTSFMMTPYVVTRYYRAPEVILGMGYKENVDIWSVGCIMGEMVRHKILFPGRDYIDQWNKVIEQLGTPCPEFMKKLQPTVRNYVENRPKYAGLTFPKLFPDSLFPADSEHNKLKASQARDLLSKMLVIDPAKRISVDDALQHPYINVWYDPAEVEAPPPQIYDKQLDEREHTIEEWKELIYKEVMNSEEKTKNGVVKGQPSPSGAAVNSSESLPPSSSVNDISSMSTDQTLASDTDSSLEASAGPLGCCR

CN(C)CCN(C(=O)Cn1c(=O)ccc2cc(C(F)(F)F)ccc21)c1scc(Cl)c1-c1nc[nH]n1 [US9796706, Compound 158]
in the range around 5.05 µM: all assays above

O=C(Cn1c(=O)ccc2cc(C(F)(F)F)ccc21)N(CCCN1CCCC1)c1scc(Cl)c1-c1nc[nH]n1 [US9796706, Compound 162]
in the range around 5.05 µM: all assays above

From BindingDB's records for patent US9796706 (Imago Pharmaceuticals, 2017)
